These are literature values, as cited in PMC5742115, “Pharmacophore Modeling and in Silico/in Vitro Screening for Human Cytochrome P450 11B1 and Cytochrome P450 11B2 Inhibitors” (Frontiers in Chemistry, 2017).

Read-outs that look alike come from different tables or passages of the source.

Data set [1] concerns CYP11B2. Conditions: reported activity, supplementary Table 1, read-out: CYP11B2 IC50, cited from earlier work.
The subject of data set [2] is CYP11B1. The conditions noted are these: reported activity, supplementary Table 1, read-out: CYP11B1 IC50, cited from earlier work.

For `Clc1ccc(Cn2cncc2-c2ccccc2)cc1` [CHEMBL597101], the IC50 is 0.0058 µM in data set [1] (ref Roumen et al., 2010) and 0.025 µM in data set [2] (ref Roumen et al., 2010).

For `Brc1ccc(Cn2cncc2-c2ccccc2)cc1` [CHEMBL597173], the IC50 was 0.0051 µM in data set [1] (ref Roumen et al., 2010) and 0.007 µM in data set [2] (ref Roumen et al., 2010).

Turning to `N#Cc1ccc(Cn2cncc2-c2ccccc2)cc1` [CHEMBL597578], the 50% inhibitory concentration (IC50) was 0.0017 µM in data set [1] (ref Roumen et al., 2010) and 0.028 µM in data set [2] (ref Roumen et al., 2010).

Regarding `N#Cc1ccc(Cn2cncc2CCCO)cc1` [CHEMBL598399], the IC50 in data set [1] (ref Roumen et al., 2010) was 0.013 µM; in data set [2] (ref Roumen et al., 2010), 0.048 µM.

Consider `OCCCc1cncn1Cc1ccc(Cl)cc1` [CHEMBL598606], for which the half-maximal inhibitory concentration (IC50) in data set [1] (ref Roumen et al., 2010) was 0.055 µM; in data set [2] (ref Roumen et al., 2010), 0.044 µM.

On to `N#Cc1ccc(Cn2cncc2-c2cccc(F)c2)cc1` [CHEMBL598789], for which the IC50 was 0.0055 µM in data set [1] (ref Roumen et al., 2010) and 0.032 µM in data set [2] (ref Roumen et al., 2010).

For the compound `N#Cc1ccc(Cn2cncc2-c2ccc(F)cc2)cc1` [CHEMBL598790], the IC50 is 0.025 µM in data set [1] (ref Roumen et al., 2010) and 0.027 µM in data set [2] (ref Roumen et al., 2010).

On to `OCCCc1cncn1Cc1ccc(Br)cc1` [CHEMBL598810], for which the concentration for half-maximal inhibition (IC50) is 0.0062 µM in data set [1] (ref Roumen et al., 2010) and 0.018 µM in data set [2] (ref Roumen et al., 2010).

On to `COC(=O)OCc1cncn1Cc1ccc(C#N)cc1` [CHEMBL599222], for which the IC50 in data set [1] (ref Roumen et al., 2010) is 0.044 µM; in data set [2] (ref Roumen et al., 2010), 0.213 µM.

Take `N#Cc1ccc(Cn2cncc2Br)cc1` [CHEMBL599223]: the IC50 in data set [1] (ref Roumen et al., 2010) was 0.023 µM; in data set [2] (ref Roumen et al., 2010), 0.073 µM.

As to `N#Cc1ccc(Cn2cncc2CO)cc1` [CHEMBL599601], the IC50 in data set [1] (ref Roumen et al., 2010) is 0.029 µM; in data set [2] (ref Roumen et al., 2010), 0.285 µM.

`N#Cc1ccc(Cn2cncc2-c2ccccc2F)cc1` [CHEMBL599603]: the 50% inhibitory concentration (IC50) in data set [1] (ref Roumen et al., 2010) is 0.0023 µM; in data set [2] (ref Roumen et al., 2010) it was 0.02 µM.

Regarding `COC(=O)CCc1cncn1Cc1ccc(F)cc1` [CHEMBL599622], the concentration for half-maximal inhibition (IC50) was 0.05 µM in data set [1] (ref Roumen et al., 2010) and 0.104 µM in data set [2] (ref Roumen et al., 2010).

Regarding `Cc1cccc(-c2cncn2Cc2ccc(C#N)cc2)c1` [CHEMBL607862], the IC50 was 0.0052 µM in data set [1] (ref Roumen et al., 2010) and 0.0062 µM in data set [2] (ref Roumen et al., 2010).

As for `Fc1ccc(Cn2cncc2-c2ccccc2)cc1` [CHEMBL610501], the IC50 in data set [1] (ref Roumen et al., 2010) was 0.011 µM; in data set [2] (ref Roumen et al., 2010) it was 0.016 µM.

As to `Cc1ccccc1-c1cncn1Cc1ccc(C#N)cc1` [CHEMBL610513], the concentration for half-maximal inhibition (IC50) is 0.0037 µM in data set [1] (ref Roumen et al., 2010) and 0.0057 µM in data set [2] (ref Roumen et al., 2010).

Take `N#Cc1ccc(Cn2cncc2C=O)cc1` [CHEMBL611680]: the IC50 in data set [1] (ref Roumen et al., 2010) is 0.062 µM; in data set [2] (ref Roumen et al., 2010) it was 0.478 µM.

For the compound `O=c1c2ccccc2oc2cccc(Cn3ccnc3)c12` [CHEMBL1083652], the IC50 in data set [1] (ref Gobbi et al., 2013) is 0.114 µM; in data set [2] (ref Gobbi et al., 2013), 0.0991 µM.

Regarding `c1ccc(-c2ccc(Cn3ccnc3)cc2)cc1` [CHEMBL1235146], the IC50 in data set [1] (ref Hille et al., 2011b) was 0.637 µM; in data set [2] (ref Hille et al., 2011b), 0.032 µM.

As for `Cc1cc(C)c(Cn2ccnc2)c(C)c1` [CHEMBL1649605], the IC50 in data set [1] (ref Hille et al., 2011b) was 0.03 µM; in data set [2] (ref Hille et al., 2011b), 0.024 µM.

As to `Cc1ccccc1Cn1ccnc1` [CHEMBL1651492], the IC50 in data set [1] (ref Hille et al., 2011b) is 0.062 µM; in data set [2] (ref Hille et al., 2011b) it was 0.061 µM.

Consider `Cc1cccc(Cn2ccnc2)c1` [CHEMBL1651493], for which the 50% inhibitory concentration (IC50) was 0.11 µM in data set [1] (ref Hille et al., 2011b) and 0.048 µM in data set [2] (ref Hille et al., 2011b).

As to `Cc1cc(C)cc(Cn2ccnc2)c1` [CHEMBL1651494], the 50% inhibitory concentration (IC50) was 0.077 µM in data set [1] (ref Hille et al., 2011b) and 0.032 µM in data set [2] (ref Hille et al., 2011b).

In the case of `Cc1c(C)c(C)c(Cn2ccnc2)c(C)c1C` [CHEMBL1651495], the IC50 in data set [1] (ref Hille et al., 2011b) is 0.023 µM; in data set [2] (ref Hille et al., 2011b), 0.005 µM.

For `c1ccc(-c2ccccc2Cn2ccnc2)cc1` [CHEMBL1651496], the IC50 in data set [1] (ref Hille et al., 2011b) is 0.039 µM; in data set [2] (ref Hille et al., 2011b) it was 0.015 µM.

For the compound `c1ccc(-c2cccc(Cn3ccnc3)c2)cc1` [CHEMBL1651497], the IC50 is 0.265 µM in data set [1] (ref Hille et al., 2011b) and 0.046 µM in data set [2] (ref Hille et al., 2011b).

Regarding `c1cn(CC23CC4CC(CC(C4)C2)C3)cn1` [CHEMBL1651505], the concentration for half-maximal inhibition (IC50) is 0.03 µM in data set [1] (ref Hille et al., 2011b) and 0.005 µM in data set [2] (ref Hille et al., 2011b).

Take `c1ccc(C(c2ccccc2)(c2ccccc2)n2ccnc2)cc1` [CHEMBL1651507]: the IC50 in data set [1] (ref Hille et al., 2011b) was 0.011 µM; in data set [2] (ref Hille et al., 2011b) it was 0.003 µM.

Consider `c1ccc(C(Cn2ccnc2)(c2ccccc2)c2ccccc2)cc1` [CHEMBL1651508], for which the IC50 in data set [1] (ref Hille et al., 2011b) was 0.008 µM; in data set [2] (ref Hille et al., 2011b), 0.004 µM.

On to `c1ccc(C(CCn2ccnc2)(c2ccccc2)c2ccccc2)cc1` [CHEMBL1651509], for which the 50% inhibitory concentration (IC50) in data set [1] (ref Hille et al., 2011b) was 0.29 µM; in data set [2] (ref Hille et al., 2011b) it was 0.08 µM.

Regarding `c1ccc(-c2ccc(Cn3ccnc3)o2)cc1` [CHEMBL1651513], the IC50 in data set [1] (ref Hille et al., 2011b) was 0.372 µM; in data set [2] (ref Hille et al., 2011b), 0.046 µM.

As to `c1ccc(-c2ccc(Cn3ccnc3)s2)cc1` [CHEMBL1651514], the half-maximal inhibitory concentration (IC50) is 0.353 µM in data set [1] (ref Hille et al., 2011b) and 0.043 µM in data set [2] (ref Hille et al., 2011b).

`O=C1CCc2cc(-c3cccnc3)cc3c2N1CC3` [CHEMBL1765205]: the IC50 is 0.0011 µM in data set [1] (ref Lucas et al., 2011) and 0.715 µM in data set [2] (ref Lucas et al., 2011).

Turning to `O=C1CCc2cc(-c3cccnc3)cc3c2N1CCC3` [CHEMBL1765206], the half-maximal inhibitory concentration (IC50) in data set [1] (ref Lucas et al., 2011) was 0.0024 µM; in data set [2] (ref Lucas et al., 2011), 2.3 µM.

Take `COc1cncc(-c2cc3c4c(c2)CCN4C(=O)CC3)c1` [CHEMBL1765207]: the half-inhibitory concentration (IC50) in data set [1] (ref Lucas et al., 2011) was 0.0006 µM; in data set [2] (ref Lucas et al., 2011), 0.247 µM.

Consider `COc1cncc(-c2cc3c4c(c2)CCC(=O)N4CCC3)c1` [CHEMBL1765208], for which the IC50 was 0.0009 µM in data set [1] (ref Lucas et al., 2011) and 0.545 µM in data set [2] (ref Lucas et al., 2011).

Regarding `CCOc1cncc(-c2cc3c4c(c2)CCN4C(=O)CC3)c1` [CHEMBL1765209], the half-inhibitory concentration (IC50) in data set [1] (ref Lucas et al., 2011) was 0.001 µM; in data set [2] (ref Lucas et al., 2011), 0.158 µM.

On to `CC(C)Oc1cncc(-c2cc3c4c(c2)CCN4C(=O)CC3)c1` [CHEMBL1765210], for which the IC50 in data set [1] (ref Lucas et al., 2011) was 0.0022 µM; in data set [2] (ref Lucas et al., 2011), 0.103 µM.

With `O=C1CCc2cc(-c3cncc(O)c3)cc3c2N1CC3` [CHEMBL1765211], the 50% inhibitory concentration (IC50) is 0.0043 µM in data set [1] (ref Lucas et al., 2011) and 2.04 µM in data set [2] (ref Lucas et al., 2011).

For `O=C1CCc2cc(-c3cncc(F)c3)cc3c2N1CC3` [CHEMBL1765212], the IC50 was 0.0044 µM in data set [1] (ref Lucas et al., 2011) and 1.29 µM in data set [2] (ref Lucas et al., 2011).

For the compound `O=C1CCc2cc(-c3cncc(C(F)(F)F)c3)cc3c2N1CC3` [CHEMBL1765213], the IC50 in data set [1] (ref Lucas et al., 2011) was 0.0059 µM; in data set [2] (ref Lucas et al., 2011) it was 0.141 µM.

Regarding `O=C1CCc2cc(-c3cncc4ccccc34)cc3c2N1CC3` [CHEMBL1765214], the IC50 in data set [1] (ref Lucas et al., 2011) was 0.0002 µM; in data set [2] (ref Lucas et al., 2011), 0.013 µM.

Take `O=C1CCc2cc(-c3cncc4ccccc34)cc3c2N1CCC3` [CHEMBL1765215]: the IC50 in data set [1] (ref Lucas et al., 2011) was 0.0002 µM; in data set [2] (ref Lucas et al., 2011) it was 0.034 µM.

Turning to `O=C1CCc2cc(-c3cncnc3)cc3c2N1CC3` [CHEMBL1765217], the IC50 in data set [1] (ref Lucas et al., 2011) was 0.056 µM; in data set [2] (ref Lucas et al., 2011), 28.5 µM.

For `O=C1CCc2cc(-n3ccnc3)cc3c2N1CC3` [CHEMBL1765218], the IC50 in data set [1] (ref Lucas et al., 2011) is 0.089 µM; in data set [2] (ref Lucas et al., 2011), 2.08 µM.

For `O=C1CCc2cc(-c3cncc(-c4ccccc4)c3)cc3c2N1CC3` [CHEMBL1765219], the half-inhibitory concentration (IC50) in data set [1] (ref Lucas et al., 2011) was 0.0013 µM; in data set [2] (ref Lucas et al., 2011), 0.058 µM.

As to `O=C1CCc2cc(-c3cncc(-c4ccccc4F)c3)cc3c2N1CC3` [CHEMBL1765220], the IC50 is 0.0007 µM in data set [1] (ref Lucas et al., 2011) and 0.043 µM in data set [2] (ref Lucas et al., 2011).

With `O=C1CCc2cc(-c3cncc(-c4cccc(F)c4)c3)cc3c2N1CC3` [CHEMBL1765221], the half-maximal inhibitory concentration (IC50) in data set [1] (ref Lucas et al., 2011) was 0.0014 µM; in data set [2] (ref Lucas et al., 2011), 0.49 µM.

`O=C1CCc2cc(-c3cncc(-c4ccc(F)cc4)c3)cc3c2N1CC3` [CHEMBL1765222]: the IC50 in data set [1] (ref Lucas et al., 2011) was 0.0009 µM; in data set [2] (ref Lucas et al., 2011) it was 0.04 µM.

Consider `O=C1CCc2cc(-c3cncc(-c4cc(F)ccc4F)c3)cc3c2N1CC3` [CHEMBL1765223], for which the IC50 in data set [1] (ref Lucas et al., 2011) is 0.0036 µM; in data set [2] (ref Lucas et al., 2011) it was 0.183 µM.

The IC50 is the concentration at which inhibition is half-maximal.
